Measurements published in US20200009173A1, “TRIAZOLE-CONTAINING MACROLIDES AND OPHTHALMIC USES THEREFOR” (Tetard, Inc., priority 2017, published 2020).
Converted amounts (≈) assume the structure as drawn. Read-outs that look alike come from different tables or passages of the source.

Columns and labels:
[1] = tested on: Viridans group streptococci; test: MIC, Viridans group streptococci; format: cell-based; settings: N = 51
Moraxella catarrhalis = test: MIC, Moraxella catarrhalis; format: cell-based; settings: N = 21
Staphylococcus aureus = test: MIC, Staphylococcus aureus; format: cell-based; settings: N = 201
CXCL8 = CXCL8 (IL-8) production in LPS-stimulated PMA-differentiated U937 cells (ELISA); format: cell-based, human; settings: concentration not given
Experimental: (§1) EXAMPLE. […] Cells. The human monocytic cell line U937 was obtained from the American Type Culture Collection (ATCC, Rockville, Md.). PBMCs from COPD patients were obtained from Brompton hospital and separated by AccuSPIN (Sigma-Aldrich). […] U937 cells were differentiated into adherent macrophage-like morphology by exposure to PMA (50 ng/ml) for 48 h in complete growth medium. Cell viability was assessed microscopically by trypan blue staining. Cell toxicity was determined by MTT assay as needed. This study was approved by the ethics committee of the Royal Brompton Hospitals, and all subjects gave written informed consent. Cytokine ELISA. TNFα and IL-8 concentrations in the supernatant of cell cultures were determined by sandwich ELISA according to the manufacturer's instructions (R&D Systems Europe, Abingdon, UK). Statistical analysis. The results were expressed as the mean±SEM. Comparisons of data in two groups were performed using the Student's t test or the Wilcoxon signed rank test. Multiple comparisons were made by one-way ANOVA with post hoc test (Dunnett's) as appropriate. The difference was considered significant at p<0.05. […] Anti-inflammatory effects of solithromycin in U937 cells.

TNFα = TNFα production in LPS-stimulated PMA-differentiated U937 cells (ELISA); format: cell-based, human; settings: concentration not given
Experimental: as §1

Legionella pneumophila = test: microbe, parasite or virus in culture; format: cell-based
MSSA = test: MICs of solithromycin and comparator drugs, MSSA (31 species); format: cell-based
From the text: (§2) EXAMPLE. The formulations described herein show overall higher potency against ocular pathogens than commercial standards.
(§3) MICs (μg/ml) of Solithromycin and Comparator Drugs against Bacterial Species

Mycoplasma pneumoniae = test: MIC, Mycoplasma pneumoniae (38 strains); format: cell-based
Peptostreptococcus spp. = test: MIC, Peptostreptococcus spp.; format: cell-based; settings: Peptostreptococcus; N = 10
MMP9 = MMP9 activity in PMA-stimulated U937 cells (gelatin zymography); format: cell-based, human
Experimental: EXAMPLE. […] Cells. The human monocytic cell line U937 was obtained from the American Type Culture Collection (ATCC, Rockville, Md.). PBMCs from COPD patients were obtained from Brompton hospital and separated by AccuSPIN (Sigma-Aldrich). […] U937 cells were differentiated into adherent macrophage-like morphology by exposure to PMA (50 ng/ml) for 48 h in complete growth medium. Cell viability was assessed microscopically by trypan blue staining. Cell toxicity was determined by MTT assay as needed. This study was approved by the ethics committee of the Royal Brompton Hospitals, and all subjects gave written informed consent. Zymography. MMP9 enzyme activity was measured by gelatin zymography. […] After electrophoresis, gels were incubated and rinsed with Novex® zymogram renaturing buffer (Invitrogen) for 30 min at room temperature. The gels were then rinsed in Novex® zymogram developing buffer (Invitrogen) for 30 min at room temperature prior to overnight incubation in the developing buffer at 37° C. After incubation, the gels were stained using a Colloidal Blue Staining Kit (Invitrogen) to visualize the zymogen bands. Statistical analysis. The results were expressed as the mean±SEM. Comparisons of data in two groups were performed using the Student's t test or the Wilcoxon signed rank test. Multiple comparisons were made by one-way ANOVA with post hoc test (Dunnett's) as appropriate. The difference was considered significant at p<0.05.

Mycoplasma hominis = test: MIC, Mycoplasma hominis; format: cell-based; settings: N = 13
Listeria monocytogenes = test: MIC, Listeria monocytogenes; format: cell-based; settings: N = 10
Streptococcus pyogenes = test: MIC, Streptococcus pyogenes; format: cell-based; settings: Streptococcus pyogenes
Haemophilus influenzae = test: MIC, Haemophilus influenzae (100 strains); format: cell-based
Corynebacterium spp. = test: MIC, Corynebacterium spp.; format: cell-based; settings: Corynebacterium; N = 10
S. epidermidis = test: MICs of solithromycin and comparator drugs, S. epidermidis (30 species); format: cell-based
From the text: as §2, §3

P. Acnes = test: MICs of solithromycin and comparator drugs against P. acnes; format: cell-based; settings: Cutibacterium acnes; 51 species
From the text: EXAMPLE. The formulations described herein show overall higher potency against ocular pathogens than commercial standards. MICs (μg/ml) of Solithromycin and Comparator Drugs against P. Acnes (51 Species)

H. influenzae = test: MICs of solithromycin and comparator drugs, H. influenzae (30 species); format: cell-based
From the text: as §2, §3

Ureaplasma urealyticum = test: MIC, Ureaplasma urealyticum; format: cell-based; settings: N = 10
S. pneumoniae = test: MICs of solithromycin and comparator drugs, S. pneumoniae (30 species); format: cell-based
From the text: as §2, §3

[2] = tested on: Haemophilus parainfluenzae; test: MIC, Haemophilus parainfluenzae; format: cell-based; settings: N = 11
CA-MRSA = test: MIC, CA-MRSA; format: cell-based, Staphylococcus aureus; settings: N = 30
Mycobacterium avium = test: MIC, Mycobacterium avium; format: cell-based; settings: Mycobacterium avium; N = 30
Streptococcus pneumoniae = test: MIC, Streptococcus pneumoniae (150 strains); format: cell-based
Neisseria gonorrhoeae = test: MIC, Neisseria gonorrhoeae; format: cell-based; settings: N = 34
MSRA = test: MICs of solithromycin and comparator drugs, MSRA (30 species); format: cell-based
From the text: as §2, §3

For `CC[C@H]1OC(=O)[C@H](C)[C@@H](O[C@H]2C[C@@](C)(OC)[C@@H](O)[C@H](C)O2)[C@H](C)[C@@H](O[C@@H]2O[C@H](C)C[C@H](N(C)C)[C@H]2O)[C@](C)(O)C[C@@H](C)CN(C)[C@H](C)[C@@H](O)[C@]1(C)O` [Azithromycin, azithromycin], the MIC50 [1] was 0.12 µg/mL (≈ 0.16 µM), the MIC90 [1] was 4 µg/mL (≈ 5.34 µM) and the “MIC Range” value [1] was ≤0.008-16 ^ μg/mL. For the same molecule, the MIC50 (Moraxella catarrhalis; Moraxella catarrhalis) was 0.03 µg/mL (≈ 0.0401 µM), the MIC90 (Moraxella catarrhalis; Moraxella catarrhalis) was 0.06 µg/mL (≈ 0.0801 µM) and the “MIC Range” value (Moraxella catarrhalis) was 0.03 to 0.5 µg/mL. The MIC50 (Staphylococcus aureus) was > 16 µg/mL, the MIC90 (Staphylococcus aureus) was > 16 µg/mL and the “effect on IL-8 production” value (CXCL8) was “did not inhibit”. The “effect on TNFα production” value (TNFα) was “did not inhibit”, the MIC50 (Legionella pneumophila; Legionella pneumophila) was 1 µg/mL (≈ 1.34 µM) and the MIC90 (Legionella pneumophila; Legionella pneumophila) was 2 µg/mL (≈ 2.67 µM). The MIC90 (Legionella pneumophila; N = 30) was 2 µg/mL (≈ 2.67 µM), the “I (intermediate susceptibility)” value (MSSA) was 0% and the “NS (not susceptible)” value (MSSA) was 39%. The “S (susceptible)” value (MSSA) was 61%, the MIC50 (MSSA; Staphylococcus aureus, MSSA) was 2 µg/mL (≈ 2.67 µM) and the MIC90 (MSSA; Staphylococcus aureus, MSSA) was > 32 µg/mL. It also gave an MIC90 (Mycoplasma pneumoniae; Mycoplasma, 38 strains, read-out: MIC90) of 0.5 ng/mL (≈ 0.000668 µM), an MIC50 (Mycoplasma pneumoniae; Mycoplasma, N = 38) of 0.25 ng/mL (≈ 0.000334 µM) and an MIC90 (Mycoplasma pneumoniae; N = 38) of 0.5 ng/mL (≈ 0.000668 µM). For the same molecule, the MIC50 (Peptostreptococcus spp.) was 8 µg/mL (≈ 10.7 µM), the MIC90 (Peptostreptococcus spp.) was > 64 µg/mL and the “inhibitory effect on MMP9 activity, lower than solithromycin” value (MMP9) was 10 fold. For the same molecule, the “MIC Range” value (Mycoplasma hominis) was 0.5-4^ μg/mL, the MIC50 (Listeria monocytogenes; Listeria monocytogenes) was 0.5 µg/mL (≈ 0.668 µM) and the MIC90 (Listeria monocytogenes; Listeria monocytogenes) was 1 µg/mL (≈ 1.34 µM). The “MIC Range” value (Listeria monocytogenes) was 0.5-1^ μg/mL, the MIC50 (Streptococcus pyogenes) was > 16 µg/mL and the MIC90 (Streptococcus pyogenes; 100 strains) was > 16 µg/mL. The MIC90 (Streptococcus pyogenes; N = 407 (CEM-101), N = 100 (azithromycin)) was > 16 µg/mL, the MIC90 (Haemophilus influenzae; Haemophilus influenzae, 100 strains, read-out: MIC90) was 2 µg/mL (≈ 2.67 µM) and the MIC50 (Haemophilus influenzae; Haemophilus influenzae, N = 100) was 2 µg/mL (≈ 2.67 µM). For the same molecule, the MIC90 (Haemophilus influenzae; N = 100) was 2 µg/mL (≈ 2.67 µM), the “MIC Range” value (Haemophilus influenzae; N = 100) was 0.25 to 4 µg/mL and the MIC50 (Corynebacterium spp.) was > 16 µg/mL. For the same molecule, the MIC90 (Corynebacterium spp.) was > 16 µg/mL, the “I (intermediate susceptibility)” value (S. epidermidis) was 0% and the “NS (not susceptible)” value (S. epidermidis) was 63%. The “S (susceptible)” value (S. epidermidis) was 37%, the MIC50 (S. epidermidis; Staphylococcus epidermidis) was > 32 µg/mL and the MIC90 (S. epidermidis; Staphylococcus epidermidis) was > 32 µg/mL. For the same molecule, the MIC50 (P. Acnes) was 0.06 µg/mL (≈ 0.0801 µM), the MIC90 (P. Acnes) was 4 µg/mL (≈ 5.34 µM) and the “I (intermediate susceptibility)” value (H. influenzae) was 0%. For the same molecule, the “MIC Range” value (H. influenzae) was 1 to 4 µg/mL, the “NS (not susceptible)” value (H. influenzae) was 0% and the “S (susceptible)” value (H. influenzae) was 100%. For the same molecule, the MIC50 (H. influenzae; Haemophilus influenzae) was 2 µg/mL (≈ 2.67 µM), the MIC90 (H. influenzae; Haemophilus influenzae) was 2 µg/mL (≈ 2.67 µM) and the “MIC Range” value (Ureaplasma urealyticum) was 0.5-4^ μg/mL. The MIC50 (Ureaplasma urealyticum; Ureaplasma urealyticum) was 2 µg/mL (≈ 2.67 µM), the MIC90 (Ureaplasma urealyticum; Ureaplasma urealyticum) was 4 µg/mL (≈ 5.34 µM) and the “I (intermediate susceptibility)” value (S. pneumoniae) was 3%. The “NS (not susceptible)” value (S. pneumoniae) was 23%, the “S (susceptible)” value (S. pneumoniae) was 73% and the MIC50 (S. pneumoniae; Streptococcus pneumoniae) was 0.06 µg/mL (≈ 0.0801 µM). The MIC90 (S. pneumoniae; Streptococcus pneumoniae) was 8 µg/mL (≈ 10.7 µM), the MIC50 ([2]; Haemophilus parainfluenzae) was 1 µg/mL (≈ 1.34 µM) and the MIC90 ([2]; Haemophilus parainfluenzae) was 2 µg/mL (≈ 2.67 µM). The “MIC Range” value [2] was 0.5-2^ μg/mL, the “MIC Range” value (CA-MRSA) was >16 µg/mL and the MIC50 (CA-MRSA; Staphylococcus aureus, MRSA) was > 16 µg/mL. For the same molecule, the MIC90 (CA-MRSA; Staphylococcus aureus, MRSA) was > 16 µg/mL, the MIC50 (Mycobacterium avium) was 16 µg/mL (≈ 21.4 µM) and the MIC90 (Mycobacterium avium) was 16 µg/mL (≈ 21.4 µM). The MIC90 (Streptococcus pneumoniae; N = 150) was >16 µg/mL, the MIC90 (Streptococcus pneumoniae; Streptococcus pneumoniae, 150 strains, read-out: MIC90) was > 16 µg/mL and the MIC50 (Streptococcus pneumoniae; Streptococcus pneumoniae, N = 150) was > 16 µg/mL. The “MIC Range” value (Neisseria gonorrhoeae) was 0.06 to 2 µg/mL, the MIC50 (Neisseria gonorrhoeae; Neisseria gonorrhoeae) was 0.25 µg/mL (≈ 0.334 µM) and the MIC90 (Neisseria gonorrhoeae; Neisseria gonorrhoeae) was 0.5 µg/mL (≈ 0.668 µM). The MIC50 (MSRA) was > 32 µg/mL, the MIC90 (MSRA) was > 32 µg/mL and the “I (intermediate susceptibility)” value (MSRA; 30 species) was 0%. For the same molecule, the “NS (not susceptible)” value (MSRA; 30 species) was 90% and the “S (susceptible)” value (MSRA; 30 species) was 10%.
